Results published in patent US4980377A, “1-(aminophenyl)-2-aminopropanone derivatives” (Laboratoire L. Lafon, priority 1984, dated 1990).
Where a name gives a salt, the structure may show the parent alone.

How the values were obtained:
[1] = tested on: gravid White New Zealand female rabbits; assay: Teratogenicity in gravid White New Zealand rabbits; type: in vivo, rabbit; conditions: day 5 to day 18 of gestation; for Affected foetuses, %: normal limit 1.5%
Protocol: The protocol used comprised administering to gravid White New Zealand female rabbits (weighing each about 2900-3000 grams before gestation) a daily dose of 0 (batch of control animals), 5,10 or 50 mg/kg of each product to be tested by gastrogavage from day 5 to day 18 of gestation, then carrying out a cesarean operation on day 29 of gestation in order to enumerate:
(i) the total number of foestuses, and
(ii) the total number of foestuses presenting at least one malformation.
To appreciate the results of such a protocol it must be noted that natural malformations may occur. Statistically, the percentage of foetuses presenting at least one malformation in any control batch of gravid White New Zealand female rabbits is lower than or equal to 1.5% with respect to the total number of foetuses.
To be precise in this protocol a malformation comprises at least one of the following cases: articular limb blocade, anorous foetus, deviated tail, shorter tail, skull deformation, exemcephalia.

[2] = tested on: CNS; assay: Neuropsychopharmacological profile as a whole; type: in vivo, mice and rats; conditions: conclusion of the tests
Protocol: In the neuropsychopharmacological study which follows, a solution of CRL 41 153 in distilled water (pH 1.5) was administered intraperitoneally in a volume of 20 ml/kg to male mice and 5 ml/kg to male rats.

[3] = tested on: mice; assay: Interaction with barbital; type: in vivo, mouse; conditions: i.p., barbital 220 mg/kg
Protocol: Half an hour after the administration of CRL 41 153, groups of 10 mice receive an intraperitoneal injection of barbital (220 mg/kg).

[4] = pH of solutions in distilled water; type: physicochemical
Protocol: The neuropsychopharmacological study was undertaken according to the procedures described above for CRL 41 153, CRL 41 213 being adminstered intraperitoneally, in solution in distilled water, in a volume of 20 ml/kg to male mice and a volume of 5 ml/kg to male rats, and the pH of the injected solution varying with the concentration of CRL 41 213 according to the data given in Table II below.

## CC(C)NCCCC(=O)c1ccc(N)cc1 [A 1, reference compound]
[1]; 10 mg/kg daily
  Affected foetuses, number: 4
  Total foetuses (live): 87
  Affected foetuses, %: 4.59%

## CC(C)(C)NCCCC(=O)c1ccc(N)cc1 [A 2, reference compound]
[1]; 10 mg/kg daily
  Affected foetuses, number: 4
  Total foetuses (live): 85
  Affected foetuses, %: 4.70%

## CC(C)NCCCC(=O)c1cc(Cl)c(N)c(Cl)c1 [A 3, reference compound]
[1]; 10 mg/kg daily
  Affected foetuses, number: 5
  Total foetuses (live): 82
  Affected foetuses, %: 6.09%

## Nc1ccc(C(=O)CCCN2CCCCC2)cc1 [A 5, reference compound]
[1]; 5 mg/kg daily
  Affected foetuses, number: 3
  Total foetuses (live): 81
  Affected foetuses, %: 3.70%
[1]; 10 mg/kg daily
  Affected foetuses, number: 4
  Total foetuses (live): 87
  Affected foetuses, %: 4.59%

## Nc1ccc(C(=O)CCCN2CCCC2)cc1 [A 6, reference compound]
[1]; 5 mg/kg daily
  Affected foetuses, number: 0
  Total foetuses (live): 89
  Affected foetuses, %: 0%
[1]; 10 mg/kg daily
  Affected foetuses, number: 5
  Total foetuses (live): 86
  Affected foetuses, %: 5.81%

## CCNCCC(=O)c1ccc(N)cc1 [A 7, reference compound]
[1]; 5 mg/kg daily
  Affected foetuses, number: 1
  Total foetuses (live): 80
  Affected foetuses, %: 1.25%
[1]; 10 mg/kg daily
  Affected foetuses, number: 4
  Total foetuses (live): 79
  Affected foetuses, %: 5.06%

## CN(C)CCC(=O)c1ccc(N)cc1 [A 8, reference compound]
[1]; 10 mg/kg daily
  Affected foetuses, number: 5
  Total foetuses (live): 81
  Affected foetuses, %: 6.17%

## Nc1ccc(C(=O)CCN2CCOCC2)cc1 [A 9, reference compound]
[1]; 5 mg/kg daily
  Affected foetuses, number: 1
  Total foetuses (live): 86
  Affected foetuses, %: 1.16%
[1]; 10 mg/kg daily
  Affected foetuses, number: 0
  Total foetuses (live): 94
  Affected foetuses, %: 0%
[1]; 50 mg/kg daily
  Affected foetuses, number: 6
  Total foetuses (live): 82
  Affected foetuses, %: 7.31%

## Nc1ccc(C(=O)CCN2CCCCC2)cc1 [A 10, reference compound]
[1]; 10 mg/kg daily
  Affected foetuses, number: 4
  Total foetuses (live): 78
  Affected foetuses, %: 5.12%

## CN1CCN(CCC(=O)c2ccc(N)cc2)CC1 [A 11, reference compound]
[1]; 10 mg/kg daily
  Affected foetuses, number: 6
  Total foetuses (live): 80
  Affected foetuses, %: 7.50%

## Nc1ccc(C(=O)CCNC2CC2)cc1 [A 12, reference compound]
[1]; 5 mg/kg daily
  Affected foetuses, number: 2
  Total foetuses (live): 75
  Affected foetuses, %: 2.66%

## Nc1ccc(C(=O)CCN2CCSCC2)cc1 [A 13, reference compound]
[1]; 10 mg/kg daily
  Affected foetuses, number: 12
  Total foetuses (live): 43
  Affected foetuses, %: 27.90%

## CC(C)NCC(=O)c1ccc(N)cc1 [A 14, reference compound]
[1]; 10 mg/kg daily
  Affected foetuses, number: 3
  Total foetuses (live): 76
  Affected foetuses, %: 3.94%

## CC(C)NCC(=O)c1cccc(N)c1 [A 15, reference compound]
[1]; 10 mg/kg daily
  Affected foetuses, number: 14
  Total foetuses (live): 52
  Affected foetuses, %: 26.92%

## Nc1ccc(C(=O)CN2CCOCC2)cc1 [A 16, 1-(4-aminophenyl)-2-morpholinylethanone, reference compound]
[1]; 5 mg/kg daily
  Affected foetuses, number: 3
  Total foetuses (live): 81
  Affected foetuses, %: 3.70%
[1]; 10 mg/kg daily
  Affected foetuses, number: 13
  Total foetuses (live): 50
  Affected foetuses, %: 26.0%

## Nc1cccc(C(=O)CN2CCOCC2)c1 [A 17, reference compound]
[1]; 5 mg/kg daily
  Affected foetuses, number: 2
  Total foetuses (live): 77
  Affected foetuses, %: 2.59%
[1]; 10 mg/kg daily
  Affected foetuses, number: 11
  Total foetuses (live): 46
  Affected foetuses, %: 23.91%

## Nc1ccc(C(=O)CN2CCCCC2)cc1 [A 18, reference compound]
[1]; 5 mg/kg daily
  Affected foetuses, number: 4
  Total foetuses (live): 80
  Affected foetuses, %: 5.0%
[1]; 10 mg/kg daily
  Affected foetuses, number: 10
  Total foetuses (live): 51
  Affected foetuses, %: 19.60%

## Nc1cccc(C(=O)CN2CCCCC2)c1 [A 19, reference compound]
[1]; 10 mg/kg daily
  Affected foetuses, number: 3
  Total foetuses (live): 62
  Affected foetuses, %: 4.83%

## Nc1ccc(C(=O)CN2CCCC2)cc1 [A 20, reference compound]
[1]; 10 mg/kg daily
  Affected foetuses, number: 5
  Total foetuses (live): 74
  Affected foetuses, %: 8.10%

## Nc1cccc(C(=O)CN2CCCC2)c1 [A 21, reference compound]
[1]; 10 mg/kg daily
  Affected foetuses, number: 4
  Total foetuses (live): 78
  Affected foetuses, %: 5.12%

## CCC1CCCCN1C(C)C(=O)c1ccc(N)c(Br)c1 (stereo not drawn) [A 22, 1-(4-amino-3-bromophenyl)2-(2-ethylpiperidino)propanone, reference compound]
[1]; 10 mg/kg daily
  Affected foetuses, number: 13
  Total foetuses (live): 46
  Affected foetuses, %: 28.26%

## CC(C(=O)c1ccc(N)cc1)N1CCN(C)CC1 (stereo not drawn) [CRL 41 243]
[1]; 50 mg/kg daily
  Affected foetuses, number: 0
  Total foetuses (live): 87
  Affected foetuses, %: 0%
[2]
  Antidepressant effects (overall): modest antidepressant effects
  Sedative effects (overall): moderate sedative effects
[3]
  Duration of the sleep induced by barbital: at strong doses reduces the duration of the sleep induced by barbital
[4]; 0.1 g/liter in distilled water
  pH: 5.0
[4]; 0.2 g/liter in distilled water
  pH: 4.5
[4]; 0.4 g/liter in distilled water
  pH: 4.0
[4]; 0.8 g/liter in distilled water
  pH: 3.5
[4]; 3.2 g/liter in distilled water
  pH: 2.5
[4]; 6.4 g/liter in distilled water
  pH: 2.0
[4]; 25 g/liter in distilled water
  pH: 1.5
[4]; 50 g/liter in distilled water
  pH: 1.0
[4]; ≤0.05 g/liter in distilled water
  pH: 5.5

## CC(C)NC(C)C(=O)c1cccc(N)c1 (stereo not drawn) [CRL 41 255]
[1]; 10 mg/kg daily
  Affected foetuses, number: 1
  Total foetuses (live): 89
  Affected foetuses, %: 1.12%

## CC(C(=O)c1cccc(N)c1)N(C)C (stereo not drawn) [CRL 41 260]
[1]; 10 mg/kg daily
  Affected foetuses, number: 1
  Total foetuses (live): 87
  Affected foetuses, %: 1.14%

## CC(C(=O)c1cccc(N)c1)N1CCCCC1 (stereo not drawn) [CRL 41 263, 1-(3-aminophenyl)-2-piperidinopropanone dihydrochloride]
[1]; 10 mg/kg daily
  Affected foetuses, number: 0
  Total foetuses (live): 92
  Affected foetuses, %: 0%

## CC(C(=O)c1cccc(N)c1)N1CCOCC1 (stereo not drawn) [CRL 41 268]
[1]; 10 mg/kg daily
  Affected foetuses, number: 1
  Total foetuses (live): 91
  Affected foetuses, %: 1.11%

## CCCNC(C)C(=O)c1cccc(N)c1 (stereo not drawn) [CRL 41 278]
[1]; 10 mg/kg daily
  Affected foetuses, number: 1
  Total foetuses (live): 92
  Affected foetuses, %: 1.08%
